Assays:
[1] = system: mice immunosuppressed by administering cyclophosphamide (CY); assay: Spleen size and spleen index in cyclophosphamide (CY)-immunosuppressed mice; assay type: in vivo, BALB/c mice; settings: CY (80 mg/kg IP) mice, CY group compared to normal group, LEV 40 mg/kg, red ginseng 100 mg/kg, GBPs 50, 100, 250, 500 mg/kg BW orally; for spleen size: FIG. 1; for spleen index: FIG. 2
Description: Six-week-old male BALB/c mice (21-23 g) were purchased from the Central Lab, Animal Inc. (Korea) and housed under standard conditions with temperature maintained at 22±2° C. and a 12-h/12-h dark/light cycle.
(§1) In the present invention, 40 mice were randomly divided into 8 groups (n=5 per group) and variously treated according to Table 1.
(§2) Cyclophosphamide (CY) was used to induce immunosuppressive models by intraperitoneal (IP) injection at a dose of 80 mg/kg body weight (BW). […] In addition, ginseng was used with a commercially available product, and mice were sacrificed 24 hours after the last treatment of samples in Table 1.
The spleen was dissected and weighed. The spleen index was calculated according to Formula below:
Spleen index (mg/g)=spleen weight/body weight of mouse [Formula]

splenic lymphocytes = assay: Splenic lymphocyte proliferation (EZ-Cytox) of splenocytes from treated mice, stimulated with Con A or LPS; assay type: in vivo, BALB/c mice; settings: CY-treated group (80 mg/kg IP) compared to the normal group
Description: as §1, §2

NK cells = assay: NK cell-mediated cytotoxicity assay, splenocytes co-cultured with YAC-1 cells; assay type: in vivo, BALB/c mice; settings: CY-treated group (80 mg/kg IP); effector:target 50:1
Description: as §1, §2

[2] = system: immune-related genes (IL-1β, IL-2, IL-4, IL-6, TNF-α, IFN-γ, TLR-4, COX-2); set-up: species or system BALB/c mice; settings: mouse, in vivo
Description: as §1, §2

Row | SMILES | spleen size [1] | spleen index [1] | Con A-stimulated cell proliferation, reduction (splenic lymphocytes; Con A 5 μg/ml) [%] | LPS-stimulated cell proliferation, reduction (splenic lymphocytes; LPS 10 μg/ml) [%] | activity of NK cells (NK cells) [%] | mRNA expression levels of immune-related genes IL-2, IL-4, IL-6, TNF-α, IFN-γ, TLR-4 and COX-2 [2]
1 | O=P1(N(CCCl)CCCl)NCCCO1 (centres unmarked) [CY, Cyclophosphamide] | decreases in both spleen size and spleen indices | decreases in both spleen size and spleen indices | 48.1 | 57.1 | 42.9 | lower than those of the normal group
2 | c1ccc([C@H]2CN3CCSC3=N2)cc1 [LEV, Levamisole] | increased spleen size and indices | increased spleen size and indices |  |  |  | 

— patent US20250057872A1, “INNATE IMMUNOMODULATORY EFFECT OF GINSENG BERRY POLYSACCHARIDES IN IMMUNOCOMPROMISED CONDITIONS” (GANGNEUNG-WONJU NATIONAL UNIVERSITY INDUSTRY ACADEMY …, priority 2022, published 2025)
